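Where inhibition never reached the appropriate level, the endpoint shown equals the highest concentration tested. Otherwise, values were interpolated linearly from a five-concentration, 48-hour dose response in 96-well plates. The concentration for 50% growth inhibition is given as GI50.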 Activity calls are given as the source filed them. Cut-off read from the data, not from the text of the source: active = GI50 up to about 1.1 µM and inactive = higher.
Legend:
Experiment in all cases: NCI-60 cell line screen, 48 h
786-0 = tested on: 786-0
A498 = tested on: A498
A549 = tested on: A549
ACHN = tested on: ACHN
CAKI-1 = tested on: CAKI-1
CCRF-CEM = tested on: CCRF-CEM
COLO 205 = tested on: COLO 205
DLD-1 = tested on: DLD-1
DMS-273 = tested on: DMS-273
EKVX = tested on: EKVX
HCC 2998 = tested on: HCC 2998
HCT-116 = tested on: HCT-116
HCT-15 = tested on: HCT-15
HL-60 = tested on: HL-60
HOP-18 = tested on: HOP-18
HOP-62 = tested on: HOP-62
IGROV-1 = tested on: IGROV-1
K562 = tested on: K562
KM-20L2 = tested on: KM-20L2
KM12 = tested on: KM12
LXFL 529 = tested on: LXFL 529
M14 = tested on: M14
M19-MEL = tested on: M19-MEL
MOLT-4 = tested on: MOLT-4
Malme-3M = tested on: Malme-3M
NCI-H226 = tested on: NCI-H226
NCI-H460 = tested on: NCI-H460
NCI-H522 = tested on: NCI-H522
OVCAR-4 = tested on: OVCAR-4
OVCAR-8 = tested on: OVCAR-8
RPMI-8226 = tested on: RPMI-8226
RXF 393 = tested on: RXF 393
SF-268 = tested on: SF-268
SF-539 = tested on: SF-539
SK-MEL-28 = tested on: SK-MEL-28
SK-MEL-2 = tested on: SK-MEL-2
SK-MEL-5 = tested on: SK-MEL-5
SK-OV-3 = tested on: SK-OV-3
SN12C = tested on: SN12C
SNB-19 = tested on: SNB-19
SNB-75 = tested on: SNB-75
SNB-78 = tested on: SNB-78
SR = tested on: SR
SW-620 = tested on: SW-620
TK-10 = tested on: TK-10
U-251 = tested on: U-251
UACC-257 = tested on: UACC-257
UACC-62 = tested on: UACC-62
UO-31 = tested on: UO-31
DMS-114 = tested on: DMS-114
HT-29 = tested on: HT-29
LOX IMVI = tested on: LOX IMVI
NCI-H23 = tested on: NCI-H23
OVCAR-5 = tested on: OVCAR-5
SF-295 = tested on: SF-295

SMILES: O=C(CN1C(=O)c2ccccc2C1=O)OC1C=CCCC1 (stereo not drawn)
- GI50 (786-0): > 100 µM (inactive)
- GI50 (A498): > 100 µM (inactive)
- GI50 (A549): > 100 µM (inactive)
- GI50 (ACHN): > 100 µM (inactive)
- GI50 (CAKI-1): > 100 µM (inactive)
- GI50 (CCRF-CEM): > 100 µM (inactive)
- GI50 (COLO 205): > 100 µM (inactive)
- GI50 (DLD-1): > 100 µM (inactive)
- GI50 (DMS-273): > 100 µM (inactive)
- GI50 (EKVX): > 100 µM (inactive)
- GI50 (HCC 2998): > 100 µM (inactive)
- GI50 (HCT-116): > 100 µM (inactive)
- GI50 (HCT-15): > 100 µM
- GI50 (HL-60): > 100 µM (inactive)
- GI50 (HOP-18): > 100 µM (inactive)
- GI50 (HOP-62): > 100 µM (inactive)
- GI50 (IGROV-1): > 100 µM (inactive)
- GI50 (K562): > 100 µM (inactive)
- GI50 (KM-20L2): > 100 µM (inactive)
- GI50 (KM12): > 100 µM (inactive)
- GI50 (LXFL 529): > 100 µM (inactive)
- GI50 (M14): > 100 µM (inactive)
- GI50 (M19-MEL): > 100 µM (inactive)
- GI50 (MOLT-4): > 100 µM (inactive)
- GI50 (Malme-3M): > 100 µM (inactive)
- GI50 (NCI-H226): > 100 µM (inactive)
- GI50 (NCI-H460): > 100 µM (inactive)
- GI50 (NCI-H522): 72.8 µM (inactive)
- GI50 (OVCAR-4): > 100 µM (inactive)
- GI50 (OVCAR-8): > 100 µM (inactive)
- GI50 (RPMI-8226): > 100 µM (inactive)
- GI50 (RXF 393): > 100 µM (inactive)
- GI50 (SF-268): > 100 µM (inactive)
- GI50 (SF-539): > 100 µM (inactive)
- GI50 (SK-MEL-28): > 100 µM (inactive)
- GI50 (SK-MEL-2): > 100 µM (inactive)
- GI50 (SK-MEL-5): > 100 µM (inactive)
- GI50 (SK-OV-3): > 100 µM (inactive)
- GI50 (SN12C): > 100 µM (inactive)
- GI50 (SNB-19): > 100 µM (inactive)
- GI50 (SNB-75): > 100 µM (inactive)
- GI50 (SNB-78): > 100 µM (inactive)
- GI50 (SR): > 100 µM (inactive)
- GI50 (SW-620): > 100 µM (inactive)
- GI50 (TK-10): > 100 µM (inactive)
- GI50 (U-251): > 100 µM (inactive)
- GI50 (UACC-257): > 100 µM (inactive)
- GI50 (UACC-62): > 100 µM (inactive)
- GI50 (UO-31): > 100 µM (inactive)

SMILES: O=C(CC1S/C(=N\c2ccccc2Cl)NC1=O)Nc1ccc(Cl)cc1 (stereo not drawn)
- GI50 (786-0): > 100 µM (inactive)
- GI50 (A498): > 100 µM (inactive)
- GI50 (A549): > 100 µM (inactive)
- GI50 (ACHN): > 100 µM (inactive)
- GI50 (CAKI-1): > 100 µM (inactive)
- GI50 (CCRF-CEM): > 100 µM (inactive)
- GI50 (COLO 205): 26.4 µM (inactive)
- GI50 (DLD-1): > 100 µM (inactive)
- GI50 (DMS-114): > 100 µM (inactive)
- GI50 (DMS-273): > 100 µM (inactive)
- GI50 (EKVX): > 100 µM (inactive)
- GI50 (HCC 2998): > 100 µM (inactive)
- GI50 (HCT-116): > 100 µM (inactive)
- GI50 (HCT-15): 16.3 µM
- GI50 (HL-60): 94.4 µM (inactive)
- GI50 (HOP-62): > 100 µM (inactive)
- GI50 (HT-29): 64 µM (inactive)
- GI50 (IGROV-1): > 100 µM (inactive)
- GI50 (K562): 79.1 µM (inactive)
- GI50 (KM-20L2): > 100 µM (inactive)
- GI50 (KM12): > 100 µM (inactive)
- GI50 (LOX IMVI): 99.3 µM (inactive)
- GI50 (LXFL 529): > 100 µM (inactive)
- GI50 (M14): > 100 µM (inactive)
- GI50 (M19-MEL): > 100 µM (inactive)
- GI50 (Malme-3M): > 100 µM (inactive)
- GI50 (NCI-H23): > 100 µM (inactive)
- GI50 (NCI-H460): > 100 µM (inactive)
- GI50 (OVCAR-4): 38.9 µM (inactive)
- GI50 (OVCAR-5): > 100 µM (inactive)
- GI50 (RXF 393): > 100 µM (inactive)
- GI50 (SF-268): > 100 µM (inactive)
- GI50 (SF-295): > 100 µM (inactive)
- GI50 (SF-539): > 100 µM (inactive)
- GI50 (SK-MEL-28): > 100 µM (inactive)
- GI50 (SK-MEL-2): > 100 µM (inactive)
- GI50 (SK-MEL-5): > 100 µM (inactive)
- GI50 (SK-OV-3): > 100 µM (inactive)
- GI50 (SN12C): > 100 µM (inactive)
- GI50 (SNB-19): > 100 µM (inactive)
- GI50 (SNB-78): > 100 µM (inactive)
- GI50 (SR): 31.3 µM (inactive)
- GI50 (SW-620): 10.6 µM (inactive)
- GI50 (TK-10): > 100 µM (inactive)
- GI50 (U-251): > 100 µM (inactive)
- GI50 (UACC-257): > 100 µM (inactive)
- GI50 (UACC-62): > 100 µM (inactive)
- GI50 (UO-31): > 100 µM (inactive)

SMILES: O=C1C[C@@H]2[C@@H](C=CC23CC3)N1O
- GI50 (786-0): > 100 µM (inactive)
- GI50 (A498): > 100 µM (inactive)
- GI50 (A549): > 100 µM (inactive)
- GI50 (CAKI-1): > 100 µM (inactive)
- GI50 (CCRF-CEM): > 100 µM (inactive)
- GI50 (COLO 205): > 100 µM (inactive)
- GI50 (DLD-1): > 100 µM (inactive)
- GI50 (DMS-273): > 100 µM (inactive)
- GI50 (EKVX): > 100 µM (inactive)
- GI50 (HCC 2998): > 100 µM (inactive)
- GI50 (HCT-116): > 100 µM (inactive)
- GI50 (HL-60): > 100 µM (inactive)
- GI50 (HOP-18): > 100 µM (inactive)
- GI50 (HOP-62): > 100 µM (inactive)
- GI50 (HT-29): > 100 µM (inactive)
- GI50 (IGROV-1): > 100 µM (inactive)
- GI50 (K562): > 100 µM (inactive)
- GI50 (KM-20L2): > 100 µM (inactive)
- GI50 (KM12): > 100 µM (inactive)
- GI50 (LOX IMVI): > 100 µM (inactive)
- GI50 (LXFL 529): > 100 µM (inactive)
- GI50 (M14): > 100 µM (inactive)
- GI50 (M19-MEL): > 100 µM (inactive)
- GI50 (MOLT-4): > 100 µM (inactive)
- GI50 (Malme-3M): > 100 µM (inactive)
- GI50 (NCI-H226): > 100 µM (inactive)
- GI50 (NCI-H23): > 100 µM (inactive)
- GI50 (NCI-H460): > 100 µM (inactive)
- GI50 (NCI-H522): > 100 µM (inactive)
- GI50 (OVCAR-4): > 100 µM (inactive)
- GI50 (OVCAR-5): > 100 µM (inactive)
- GI50 (OVCAR-8): > 100 µM (inactive)
- GI50 (RPMI-8226): > 100 µM (inactive)
- GI50 (RXF 393): > 100 µM (inactive)
- GI50 (SF-268): > 100 µM (inactive)
- GI50 (SF-295): > 100 µM (inactive)
- GI50 (SF-539): > 100 µM (inactive)
- GI50 (SK-MEL-28): > 100 µM (inactive)
- GI50 (SK-MEL-2): > 100 µM (inactive)
- GI50 (SK-MEL-5): > 100 µM (inactive)
- GI50 (SK-OV-3): > 100 µM (inactive)
- GI50 (SN12C): > 100 µM (inactive)
- GI50 (SNB-19): > 100 µM (inactive)
- GI50 (SNB-75): > 100 µM (inactive)
- GI50 (SNB-78): > 100 µM (inactive)
- GI50 (SW-620): > 100 µM (inactive)
- GI50 (TK-10): > 100 µM (inactive)
- GI50 (U-251): > 100 µM (inactive)
- GI50 (UACC-257): > 100 µM (inactive)
- GI50 (UACC-62): > 100 µM (inactive)
- GI50 (UO-31): > 100 µM (inactive)

Reference: ChEMBL document CHEMBL1201862, “PubChem BioAssay data set” (2004)
